Among the test systems are 786-0 renal; MDA-MB-435; CCRF-CEM leukemia; ACHN renal; T-47D breast; NCI/ADR-RES ovarian; OVCAR-3 ovarian; CAKI-1 renal; TK-10 renal; SR leukemia.
Holding throughout (assay): NCI anticancer screen, dose series, 48 h

For eleven compounds, GI50 and TGI results are on record in PubChem BioAssay (NCI).

Where “and” joins values, the source holds several entries; their conditions need not be identical. Equal entries are not always repeated.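 1) Cells in 96-well plates. 2) Compound, 48 h, 5 concentrations. 3) Linear interpolation between surrounding doses. 4) Unreached endpoint = highest concentration. The concentration for 50% growth inhibition is given as GI50. TGI marks complete inhibition of growth.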 Some results are limits rather than exact numbers.

In the case of `CNS(=O)(=O)Nc1nccc(Cc2c(C)c3ccc(Oc4ncccn4)cc3oc2=O)c1F`, the GI50 in the assay with 786-0 renal was over 85.9 µM; in the assay on MDA-MB-435, 0.0526 µM and 0.0395 µM; with CCRF-CEM leukemia, over 100 µM; with ACHN renal it was 4.92 µM and > 2.21 µM; in the assay with T-47D breast, 16.1 µM and > 10 µM; in the assay with NCI/ADR-RES ovarian it was 20.2 µM and > 10 µM. The GI50 with OVCAR-3 ovarian is 24.5 µM and > 10 µM; in the assay with CAKI-1 renal it was 1.34 µM; in the assay with TK-10 renal, 0.184 µM and 0.0841 µM; in the assay on SR leukemia, over 100 µM. Besides, the TGI in the assay with 786-0 renal, in the assay on MDA-MB-435, in the assay on CCRF-CEM leukemia, in the assay on ACHN renal, in the assay with T-47D breast and with NCI/ADR-RES ovarian was over 100 µM each time. Also, the TGI in the assay on OVCAR-3 ovarian, in the assay on CAKI-1 renal, in the assay on TK-10 renal and in the assay with SR leukemia was over 100 µM throughout.

Regarding `C=C(C)c1nc(Oc2ccccc2)nc(Oc2ccccc2)n1`, the TGI in the assay with 786-0 renal was 15 µM; in the assay on MDA-MB-435, 22.3 µM; in the assay on CCRF-CEM leukemia it was 9.25 µM; with ACHN renal it was 23 µM; with T-47D breast, 21.6 µM; with NCI/ADR-RES ovarian it was 29.7 µM. Moreover, the TGI with OVCAR-3 ovarian was 15.2 µM; with CAKI-1 renal, 4.44 µM; in the assay with TK-10 renal it was 14 µM; with SR leukemia, over 25.1 µM.

As to `COc1cc(/C=C/C(=O)c2nc3cc(F)ccc3nc2C)cc(OC)c1OC`, the GI50 with 786-0 renal is over 23.2 µM; in the assay on MDA-MB-435, 3.55 µM; with CCRF-CEM leukemia, 1.85 µM; in the assay on ACHN renal, 10.3 µM; with T-47D breast, 4.91 µM; with NCI/ADR-RES ovarian it was 14.2 µM. Also, the GI50 in the assay on OVCAR-3 ovarian is 2.59 µM; in the assay on CAKI-1 renal it was 7.42 µM; with TK-10 renal it was over 100 µM; with SR leukemia, 1.85 µM. Moreover, the TGI in the assay with 786-0 renal is over 100 µM; in the assay on MDA-MB-435 it was over 100 µM; in the assay on CCRF-CEM leukemia, over 21 µM; in the assay with ACHN renal it was over 100 µM; in the assay with T-47D breast, over 100 µM; with NCI/ADR-RES ovarian, over 91.1 µM. The TGI is over 28.1 µM in the assay on OVCAR-3 ovarian, over 100 µM with CAKI-1 renal, over 100 µM with TK-10 renal and over 100 µM with SR leukemia.

`COc1cc2c3c(n(CCCN)c(=O)c2cc1OC)-c1ccc(N)cc1C3=O`: the GI50 with 786-0 renal is 1.91 µM; with MDA-MB-435 it was 3.06 µM; in the assay with CCRF-CEM leukemia it was 0.389 µM; with ACHN renal, 5.9 µM; in the assay with T-47D breast, 0.842 µM; in the assay on NCI/ADR-RES ovarian, over 100 µM. For the same compound, the GI50 was 2.12 µM in the assay on OVCAR-3 ovarian, 30.9 µM with CAKI-1 renal, 17.9 µM with TK-10 renal and 0.152 µM with SR leukemia. Besides, the TGI with 786-0 renal was 5.04 µM; in the assay with MDA-MB-435 it was 17 µM; with CCRF-CEM leukemia it was 7.28 µM; in the assay with ACHN renal, 37.8 µM; in the assay on T-47D breast, 7.37 µM; in the assay with NCI/ADR-RES ovarian, over 100 µM. In addition, the TGI in the assay with OVCAR-3 ovarian was over 29.6 µM; in the assay with CAKI-1 renal, over 82.3 µM; in the assay on TK-10 renal, 80.6 µM; in the assay with SR leukemia it was 1.45 µM.

Regarding `O=c1c(Oc2ccc(F)cc2F)cc2cnc(NC3CCOCC3)nc2n1C1CC1`, the GI50 in the assay with 786-0 renal is over 25 µM; with MDA-MB-435, over 25 µM; in the assay with CCRF-CEM leukemia, over 25 µM; with ACHN renal it was over 25 µM; in the assay on T-47D breast it was 19.3 µM; with NCI/ADR-RES ovarian, over 25 µM. The GI50 with OVCAR-3 ovarian was over 25 µM; with CAKI-1 renal, over 25 µM; in the assay with TK-10 renal it was 19.8 µM; in the assay with SR leukemia it was over 25 µM. The TGI in the assay with 786-0 renal, with MDA-MB-435, in the assay on CCRF-CEM leukemia, in the assay with ACHN renal, in the assay on T-47D breast and with NCI/ADR-RES ovarian was over 25 µM throughout. Also, the TGI with OVCAR-3 ovarian, in the assay on CAKI-1 renal, in the assay on TK-10 renal and in the assay with SR leukemia was over 25 µM in each case.

Consider `O=C(O)CSc1cc(NS(=O)(=O)c2ccc(Br)cc2)c2ccccc2c1O`, for which the GI50 in the assay on 786-0 renal is 19.9 µM; in the assay on MDA-MB-435, 1.88 µM; with CCRF-CEM leukemia, 4.37 µM; in the assay with ACHN renal, 12.8 µM; with T-47D breast it was 4.84 µM; in the assay with NCI/ADR-RES ovarian, 3.11 µM. For the same compound, the GI50 with OVCAR-3 ovarian is 2.58 µM; with CAKI-1 renal, 14.6 µM; with TK-10 renal, 20.3 µM; in the assay on SR leukemia it was 17.8 µM. The TGI in the assay on 786-0 renal was 38.3 µM; with MDA-MB-435 it was 3.41 µM; in the assay with CCRF-CEM leukemia, over 44.8 µM; in the assay with ACHN renal, 26.6 µM; in the assay with T-47D breast, 23.1 µM; in the assay on NCI/ADR-RES ovarian, 13.8 µM. Moreover, the TGI in the assay on OVCAR-3 ovarian is 9.09 µM; in the assay with CAKI-1 renal, 29.4 µM; with TK-10 renal, 34.7 µM; in the assay on SR leukemia, over 68.1 µM.

Regarding `CN1CCN(C(=O)/C=C/c2ccc([N+](=O)[O-])o2)CC1`, the GI50 is 18.6 µM with 786-0 renal; 3.12 µM in the assay with MDA-MB-435; 2.72 µM in the assay on CCRF-CEM leukemia; 3.29 µM in the assay on ACHN renal; 18.1 µM with T-47D breast; 14.9 µM in the assay with NCI/ADR-RES ovarian. Further, the GI50 was 12.9 µM in the assay on OVCAR-3 ovarian, 10.6 µM in the assay on CAKI-1 renal, 31.7 µM in the assay with TK-10 renal and 4.23 µM in the assay with SR leukemia. Also, the TGI in the assay on 786-0 renal was determined as 36.7 µM; with MDA-MB-435, 14.9 µM; in the assay on CCRF-CEM leukemia, 27.9 µM; in the assay with ACHN renal, 13.1 µM; in the assay with T-47D breast it was 45.4 µM; in the assay with NCI/ADR-RES ovarian, 52.5 µM. The TGI was 26.2 µM in the assay with OVCAR-3 ovarian, 34.3 µM in the assay with CAKI-1 renal, over 100 µM in the assay with TK-10 renal and 75.1 µM in the assay with SR leukemia.

Regarding `CC[C@]12C=CCN3CC[C@@]4(c5ccc(OC)cc5N(C)[C@H]4[C@@](O)(C(=O)OC)[C@@H]1OC(=O)CCCN1CCN(CCCC(=O)O[C@@H]4[C@]5(CC)C=CCN6CC[C@@]7(c8ccc(OC)cc8N(C)[C@H]7[C@@]4(O)C(=O)OC)[C@@H]65)CC1)[C@@H]32`, the GI50 with 786-0 renal is 1.44 µM; with MDA-MB-435 it was 1.25 µM; in the assay with CCRF-CEM leukemia, 1.23 µM; with ACHN renal it was 0.857 µM; with T-47D breast, 1.6 µM; in the assay on NCI/ADR-RES ovarian it was 1.45 µM. Further, the GI50 is 1.38 µM in the assay with OVCAR-3 ovarian, 0.436 µM in the assay on CAKI-1 renal, 1.3 µM with TK-10 renal and 0.252 µM with SR leukemia. Also, the TGI in the assay on 786-0 renal turned out to be 2.91 µM; in the assay with MDA-MB-435, 2.63 µM; with CCRF-CEM leukemia, 3.03 µM; in the assay with ACHN renal, 2.07 µM; in the assay with T-47D breast, 3.44 µM; in the assay with NCI/ADR-RES ovarian it was 3.17 µM. In addition, the TGI is 2.82 µM in the assay on OVCAR-3 ovarian, 1.91 µM in the assay with CAKI-1 renal, 2.78 µM in the assay on TK-10 renal and 0.738 µM with SR leukemia.

For the compound `CNCc1cccc2c1OCCOCCOCCNS(=O)(=O)c1ccc(cc1)-c1cnc(N)c(n1)C(=O)N2`, the GI50 with 786-0 renal was 1.22 µM; with MDA-MB-435, 1.35 µM; in the assay with CCRF-CEM leukemia it was 0.532 µM; with ACHN renal, 2.78 µM; in the assay with T-47D breast, 2.05 µM; in the assay with NCI/ADR-RES ovarian, 84.3 µM. Besides, the GI50 is 1.12 µM with OVCAR-3 ovarian, 0.46 µM in the assay on CAKI-1 renal, 1.98 µM in the assay with TK-10 renal and 0.346 µM in the assay on SR leukemia. Also, the TGI with 786-0 renal was 2.89 µM; with MDA-MB-435 it was 2.74 µM; in the assay on CCRF-CEM leukemia, 8.57 µM; in the assay on ACHN renal, 11.7 µM; with T-47D breast, 5.46 µM; in the assay on NCI/ADR-RES ovarian it was over 100 µM. In addition, the TGI in the assay with OVCAR-3 ovarian came out at 2.61 µM; in the assay on CAKI-1 renal, 1.86 µM; in the assay on TK-10 renal, 8.49 µM; in the assay on SR leukemia, 13.3 µM.

For the compound `Cc1ccc(-c2nc([P+](c3ccccc3)(c3ccccc3)c3ccccc3)c(N3CCOCC3)o2)cc1`, the GI50 is 2.54 µM in the assay with 786-0 renal; 0.351 µM in the assay with MDA-MB-435; 0.588 µM in the assay on CCRF-CEM leukemia; 2.32 µM with ACHN renal; 0.23 µM in the assay on T-47D breast; 21.9 µM in the assay on NCI/ADR-RES ovarian. Further, the GI50 in the assay on OVCAR-3 ovarian is 0.362 µM; with CAKI-1 renal, 5.58 µM; with TK-10 renal, 1.44 µM; in the assay on SR leukemia, 0.418 µM. Besides, the TGI with 786-0 renal was 12.7 µM; in the assay on MDA-MB-435, 1.81 µM; in the assay with CCRF-CEM leukemia, 11.3 µM; in the assay with ACHN renal, 7.53 µM; in the assay with T-47D breast, 1.83 µM; in the assay on NCI/ADR-RES ovarian, over 100 µM. Moreover, the TGI in the assay on OVCAR-3 ovarian was 3.69 µM; in the assay with CAKI-1 renal it was 17.1 µM; with TK-10 renal, 9.15 µM; in the assay with SR leukemia it was 5.33 µM.

Turning to `COc1nc(N)nc2nc[nH]c12`, the GI50 in the assay on 786-0 renal was 639 µM and 214 µM; with MDA-MB-435, over 801 µM; in the assay with CCRF-CEM leukemia, 563 µM; in the assay with ACHN renal, 454 µM and 381 µM; in the assay on T-47D breast, over 779 µM; with NCI/ADR-RES ovarian, 580 µM. Moreover, the GI50 with OVCAR-3 ovarian was 744 µM and > 856 µM; in the assay on CAKI-1 renal it was 188 µM and 295 µM; in the assay with TK-10 renal, 431 µM and 442 µM; in the assay on SR leukemia it was > 800 µM and 249 µM. The TGI is 500 µM and 800 µM and > 418 µM in the assay with 786-0 renal; over 1000 µM in the assay with MDA-MB-435; 407 µM and 800 µM and > 920 µM with CCRF-CEM leukemia; 500 µM and 800 µM and > 1000 µM in the assay with ACHN renal; 500 µM and > 1000 µM in the assay on T-47D breast; over 739 µM in the assay on NCI/ADR-RES ovarian. Besides, the TGI in the assay on OVCAR-3 ovarian is 500 µM and 800 µM and > 1000 µM; in the assay on CAKI-1 renal it was 410 µM and 522 µM and 730 µM; in the assay on TK-10 renal it was 500 µM and 800 µM and > 1000 µM; in the assay with SR leukemia, 500 µM and > 800 µM and > 849 µM.
